Results taken from ChEMBL document CHEMBL1201862, “PubChem BioAssay data set” (2004).
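48-hour exposure; five concentrations; linearly interpolated endpoints. GI50 = concentration required for 50% inhibition of growth.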 Active and inactive are the calls of the source. Cut-off read from the data, not from the text of the source: active = GI50 up to about 1.1 µM and inactive = higher.

What was measured:
Assay in all cases: NCI tumour cell line growth inhibition, 48 h
RXF 393 = test system: RXF 393
SW-620 = test system: SW-620
NCI/ADR-RES = test system: NCI/ADR-RES
K562 = test system: K562
NCI-H23 = test system: NCI-H23
SK-MEL-28 = test system: SK-MEL-28
EKVX = test system: EKVX
HCT-15 = test system: HCT-15
ACHN = test system: ACHN
MOLT-4 = test system: MOLT-4
OVCAR-5 = test system: OVCAR-5
Malme-3M = test system: Malme-3M
SF-539 = test system: SF-539
MCF7 = test system: MCF7
NCI-H226 = test system: NCI-H226
COLO 205 = test system: COLO 205
HCC 2998 = test system: HCC 2998
OVCAR-8 = test system: OVCAR-8
SK-MEL-5 = test system: SK-MEL-5
786-0 = test system: 786-0

Row | Compound | GI50 (RXF 393) | GI50 (SW-620) | GI50 (NCI/ADR-RES) | GI50 (K562) | GI50 (NCI-H23) | GI50 (SK-MEL-28) | GI50 (EKVX) | GI50 (HCT-15) | GI50 (ACHN) | GI50 (MOLT-4) | GI50 (OVCAR-5) | GI50 (Malme-3M) | GI50 (SF-539) | GI50 (MCF7) | GI50 (NCI-H226) | GI50 (COLO 205) | GI50 (HCC 2998) | GI50 (OVCAR-8) | GI50 (SK-MEL-5) | GI50 (786-0)
1 | CCOC(=O)CON=c1c2ccccc2ccc2ccccc12 | > 100 µM (inactive) | > 100 µM (inactive) | > 100 µM (inactive) | > 100 µM (inactive) | > 100 µM (inactive) | > 100 µM (inactive) | > 100 µM (inactive) | > 100 µM | > 100 µM (inactive) | > 100 µM (inactive) | > 100 µM (inactive) | > 100 µM (inactive) | > 100 µM (inactive) | > 100 µM (inactive) | > 100 µM (inactive) | > 100 µM (inactive) | 26.1 µM (inactive) | > 100 µM (inactive) | > 100 µM (inactive) | > 100 µM (inactive)
2 | CC12CCC3c4cc(Br)c(O)c(Br)c4CCC3C1CCC2O (stereo not drawn) | 12.7 µM (inactive) | 14.2 µM (inactive) | 18.5 µM (inactive) | 6.18 µM (inactive) | – | 17.9 µM (inactive) | 15.2 µM (inactive) | – | 22.5 µM (inactive) | 17.7 µM (inactive) | 25.7 µM (inactive) | 14.3 µM (inactive) | 18.5 µM (inactive) | 27.2 µM (inactive) | 16.7 µM (inactive) | 25.2 µM (inactive) | 12.7 µM (inactive) | 14 µM (inactive) | – | 18.7 µM (inactive)
3 | COC(=O)C(=O)C(C(=O)C(=O)Nc1ccccc1C(N)=O)c1nc2ccc(Cl)cc2nc1O (stereo not drawn) | > 100 µM (inactive) | > 100 µM (inactive) | > 100 µM (inactive) | > 100 µM (inactive) | > 100 µM (inactive) | > 100 µM (inactive) | – | > 100 µM | > 100 µM (inactive) | > 100 µM (inactive) | > 100 µM (inactive) | – | > 100 µM (inactive) | > 100 µM (inactive) | > 100 µM (inactive) | > 100 µM (inactive) | > 100 µM (inactive) | > 100 µM (inactive) | > 100 µM (inactive) | > 100 µM (inactive)
4 | NC(=O)C(=CN1CC(=O)NC1=S)C(N)=O | > 100 µM (inactive) | > 100 µM (inactive) | > 100 µM (inactive) | – | > 100 µM (inactive) | > 100 µM (inactive) | > 100 µM (inactive) | > 100 µM | > 100 µM (inactive) | > 100 µM (inactive) | > 100 µM (inactive) | – | > 100 µM (inactive) | > 100 µM (inactive) | > 100 µM (inactive) | > 100 µM (inactive) | > 100 µM (inactive) | > 100 µM (inactive) | > 100 µM (inactive) | > 100 µM (inactive)
5 | OC1C#CCSCC#C/C=C\1 (stereo not drawn) | 18 µM (inactive) | 18.4 µM (inactive) | 1.93 µM (inactive) | 17.9 µM (inactive) | 80.4 µM (inactive) | 89.5 µM (inactive) | > 100 µM (inactive) | > 100 µM | > 100 µM (inactive) | – | > 100 µM (inactive) | 47.1 µM (inactive) | > 100 µM (inactive) | 53.3 µM (inactive) | > 100 µM (inactive) | 15.2 µM (inactive) | > 100 µM (inactive) | 3.72 µM (inactive) | – | 3.58 µM (inactive)
6 | COC(=O)C(=O)C(C(=O)OC)C(=O)C(=O)Nc1c(Cl)cc([N+](=O)[O-])cc1Cl (stereo not drawn) | 81.3 µM (inactive) | > 100 µM (inactive) | 72.8 µM (inactive) | > 100 µM (inactive) | > 100 µM (inactive) | > 100 µM (inactive) | 48.6 µM (inactive) | 92.9 µM | 80.2 µM (inactive) | – | > 100 µM (inactive) | > 100 µM (inactive) | > 100 µM (inactive) | > 100 µM (inactive) | > 100 µM (inactive) | – | > 100 µM (inactive) | 46 µM (inactive) | > 100 µM (inactive) | 40.7 µM (inactive)
7 | CCOC(=O)CCCn1cc(C(=O)OC)nn1 | > 100 µM (inactive) | > 100 µM (inactive) | > 100 µM (inactive) | – | > 100 µM (inactive) | > 100 µM (inactive) | > 100 µM (inactive) | > 100 µM | > 100 µM (inactive) | > 100 µM (inactive) | – | > 100 µM (inactive) | > 100 µM (inactive) | > 100 µM (inactive) | > 100 µM (inactive) | > 100 µM (inactive) | > 100 µM (inactive) | > 100 µM (inactive) | > 100 µM (inactive) | > 100 µM (inactive)
8 | COc1cccc2c1OC1(C=C2)Oc2ccccc2C(=O)N1C (stereo not drawn) | 25.5 µM (inactive) | 42.7 µM (inactive) | 3.91 µM (inactive) | 17.5 µM (inactive) | 31.2 µM (inactive) | 59 µM (inactive) | 18.4 µM (inactive) | 32.5 µM | 35.2 µM (inactive) | 15.7 µM (inactive) | 78.3 µM (inactive) | – | – | 37.8 µM (inactive) | 20.9 µM (inactive) | 31.7 µM (inactive) | 26.7 µM (inactive) | 4.68 µM (inactive) | 68.1 µM (inactive) | 35.5 µM (inactive)
9 | O=S1(=O)CCN(Cc2ccccc2)/C1=N\S(=O)(=O)c1ccc(Cl)cc1 | 19.5 µM (inactive) | 19.1 µM (inactive) | 16.6 µM (inactive) | 35.6 µM (inactive) | 18.9 µM (inactive) | 18.3 µM (inactive) | 15.1 µM (inactive) | 20.3 µM | 18.8 µM (inactive) | 20.5 µM (inactive) | 18.1 µM (inactive) | – | 18.7 µM (inactive) | 22.8 µM (inactive) | 17.8 µM (inactive) | 19.4 µM (inactive) | 19.3 µM (inactive) | 17 µM (inactive) | 21.2 µM (inactive) | 19.7 µM (inactive)
10 | COC(=O)C(=O)C(C(=O)C(=O)Nc1nnc(S)[nH]1)c1nc2ccc([N+](=O)[O-])cc2nc1O (stereo not drawn) | > 100 µM (inactive) | > 100 µM (inactive) | > 100 µM (inactive) | 57.8 µM (inactive) | > 100 µM (inactive) | > 100 µM (inactive) | > 100 µM (inactive) | > 100 µM | 86.9 µM (inactive) | – | > 100 µM (inactive) | > 100 µM (inactive) | > 100 µM (inactive) | 92.7 µM (inactive) | > 100 µM (inactive) | – | > 100 µM (inactive) | > 100 µM (inactive) | > 100 µM (inactive) | > 100 µM (inactive)
11 | CC1=CC(=O)CC(C)(C)C1/C=C/C(C)=C/C=C/C(C)=C/C=C/C=C(C)/C=C/C=C(C)/C=C/C1=C(C)CC(O)CC1(C)C (stereo not drawn) | 20.1 µM (inactive) | 15.7 µM (inactive) | 51.5 µM (inactive) | 0.745 µM (active) | 27.9 µM (inactive) | 28.4 µM (inactive) | 57.3 µM (inactive) | 24.1 µM | 28.6 µM (inactive) | 0.0853 µM (active) | 57.3 µM (inactive) | – | 47.2 µM (inactive) | 16.3 µM (inactive) | > 100 µM (inactive) | – | 23.8 µM (inactive) | 32.2 µM (inactive) | 33 µM (inactive) | 22 µM (inactive)
12 | CCCc1nc2c(n1CC)C(=O)c1ccccc1C2=O | 26.9 µM (inactive) | 39.1 µM (inactive) | 26.2 µM (inactive) | 31.1 µM (inactive) | 39.4 µM (inactive) | 82.2 µM (inactive) | – | 28.3 µM | 40.3 µM (inactive) | 17 µM (inactive) | > 100 µM (inactive) | 22.2 µM (inactive) | 63.5 µM (inactive) | 51.1 µM (inactive) | 56 µM (inactive) | 35.5 µM (inactive) | 30.8 µM (inactive) | – | 29.8 µM (inactive) | > 100 µM (inactive)
13 | O=C(Nn1c(-c2ccccc2)nc2ccccc2c1=O)c1ccc(Cl)cc1 | > 100 µM (inactive) | > 100 µM (inactive) | > 100 µM (inactive) | > 100 µM (inactive) | 95.1 µM (inactive) | > 100 µM (inactive) | > 100 µM (inactive) | > 100 µM | 94.2 µM (inactive) | 59.6 µM (inactive) | > 100 µM (inactive) | > 100 µM (inactive) | > 100 µM (inactive) | > 100 µM (inactive) | > 100 µM (inactive) | – | > 100 µM (inactive) | > 100 µM (inactive) | 23.4 µM (inactive) | > 100 µM (inactive)
14 | O=C(/C=C/C=C/c1ccccc1)c1ccccc1 | 17.6 µM (inactive) | 16.7 µM (inactive) | 13.8 µM (inactive) | 17.1 µM (inactive) | – | 17.5 µM (inactive) | 15.3 µM (inactive) | 12.2 µM | – | 14.6 µM (inactive) | 14.7 µM (inactive) | 10 µM (inactive) | 17.3 µM (inactive) | 16.3 µM (inactive) | 16.7 µM (inactive) | 17.7 µM (inactive) | 17.8 µM (inactive) | 13.4 µM (inactive) | 16.3 µM (inactive) | 14.3 µM (inactive)
15 | O=C(O)CN1CCN(CC(=O)O)CCN(CC(=O)O)CCN(CC(=O)O)CC1 [TETRAXETAN] | > 100 µM (inactive) | > 100 µM (inactive) | > 100 µM (inactive) | > 100 µM (inactive) | > 100 µM (inactive) | – | > 100 µM (inactive) | > 100 µM | > 100 µM (inactive) | > 100 µM (inactive) | > 100 µM (inactive) | – | > 100 µM (inactive) | > 100 µM (inactive) | > 100 µM (inactive) | > 100 µM (inactive) | > 100 µM (inactive) | > 100 µM (inactive) | > 100 µM (inactive) | > 100 µM (inactive)
